# In US11898210B2, “Tools for assessing FimH blockers therapeutic efficiency” (ENTEROME, priority 2017, dated 2024):
# Key:
# [1] = system: isolated E. coli strains; experiment: Aggregation assay with EB8018 on the collection of isolated bacterial strains; type: cell-based, Escherichia coli
# Source text: 110 E. coli strains from La Girona University (Margarita Medina-Martinez Lab-Girona-Spain) and Cornell (Kenneth Simpson Lab—Ithaca—USA) have been made available through MTA. These isolated strains had been previously extracted from the stool or ileal/colonic biopsies of IBD patients or controls and had been characterised for their AIEC phenotype (for Cornell strains see Dogan B. et al., 2014; Baumgart M. et al., 2007, summarized in the Appendix). Those 110 strains have been sent to SMALTIS (Besangon, France) who is in charge of all laboratory work. An additional 3 non E. coli strains have been ordered as well as LF82 and LF82 deltaFimH that serve as respectively positive and negative controls.
# (§1) Three days before aggregation assays, bacterial strains were defrosted on TSA (Tryptone Soya Agar) plates. A first overnight culture was performed by inoculation of 3 mL of LB broth with a single colony of bacteria followed by a second overnight culture (1 mL of the first culture+4 mL LB broth).
# (§2) Six concentrations of EB8018 (sample SP-0010269-017 produced by China Gateway) were tested in the aggregation assays (1 nM/10 nM/100 nM/1 μM/10 μM and 100 μM), 500× working solutions were prepared in pure DMSO by 10-fold serial dilutions from a 100 mM stock solution (65 mg EB8018+1 mL DMSO; MEB8018:649.68 g/mol). The 500× working solutions (1 μM, 10 μM, 100 μM, 1 mM, 10 mM and 100 mM) were split into aliquots and stored at −20° C., until use.
# (§3) On the day of the test, an aliquot of each EB8018 500× working solution (1 μM, 10 μM, 100 μM, 1 mM, 10 mM and 100 mM) was defrosted and diluted twice in LB medium (1:20 for the first dilution and 1:25 for the second dilution) to obtain respectively six 2× working solutions (2 nM, 20 nM, 200 nM, 2 μM, 20 μM and 200 μM). The second overnight bacterial cultures were diluted in LB medium (50-fold dilution). […] Every hour, each well was observed and the starting time of aggregation was recorded. […] For each concentration and each time point, aggregation was evaluated by a technician. […]
# [2] = system: LF82-ΔFimH; experiment: Aggregation assay with EB8018 on negative control strain LF82-ΔFimH; type: cell-based, Escherichia coli; conditions: whatever the concentration tested and whatever the time of incubation
# Method: as §1, §2, §3
# [3] = system: LF82; experiment: Aggregation assay with EB8018 on positive control strain LF82; type: cell-based, Escherichia coli
# Method: as §1, §2
# On the day of the test, an aliquot of each EB8018 500× working solution (1 μM, 10 μM, 100 μM, 1 mM, 10 mM and 100 mM) was defrosted and diluted twice in LB medium (1:20 for the first dilution and 1:25 for the second dilution) to obtain respectively six 2× working solutions (2 nM, 20 nM, 200 nM, 2 μM, 20 μM and 200 μM). The second overnight bacterial cultures were diluted in LB medium (50-fold dilution). Fifty μL of these bacteria dilutions were dispensed into 96-well plates (8 wells/strain). Fifty μL of the EB8018 2× working solutions or fresh LB or LB with 0.2% DMSO were added to the wells. Microplates were incubated for 5 hours at 37° C. under constant shaking (200 rpm). Every hour, each well was observed and the starting time of aggregation was recorded. After 5 hours of incubation, a picture was taken only in wells where an aggregation was observed. For each concentration and each time point, aggregation was evaluated by a technician.
# This protocol was applied to the 113 isolated bacterial strains. On each plate, a positive control (LF82) and a negative control (LF82-ΔFimH) were used.
# [4] = system: bacterial morphotypes isolated from biopsies of CD patients; experiment: Aggregation to EB8018 of bacterial morphotypes isolated from MOBIDIC ileal biopsies; type: cell-based; conditions: 106 CD patients with conclusive biopsy results; 10 nM/100 nM/1 μM EB8018
# Method: Mucosal specimens, isolated from CD patients have been collected from the MOBIDIC study. For each patient, 4 biopsies were collected, 2 or 3 for further investigations and 1 or 2 as back-up sample stored at Cell&Co (Clermont-Ferrand, France). The ileal specimens were introduced immediately into preweighed vials containing 1.8 mL of refrigerated DMEM with 15% glycerol. The vials were weighed to establish the weight of sample. Ideally, the size of the biopsies must be between 5 and 10 mg. After being frozen at −80° C., vials were sent to Cell&Co and stored at −80° C. upon receipt.
# On day 1, biopsies were processed to retrieve adherent bacteria (extract A) and invasive bacteria (extract I). […]
# Extracts A and I were cultivated in LB broth for 2×24 hours and on day 3, the LB overnight cultures were used for aggregation assays with EB8018 compound. […] Every hour, bacterial growth was measured and a picture of each well was taken using a SPARK10M. After 5 hours, the microplate was shacked and 10 min after, a picture was taken for aggregation assessment (aggregation was evaluated by a technician with comparison with DMSO). […]
# When no aggregation was observed on extracts or in case of inconclusive evaluation (for example with observation of aggregation with the DMSO without any compound), a second biopsy was analysed following the same protocol. […]
# [5] = system: AIEC; conditions: Bouckaert et al., 2005, 2013; cited from earlier work
# [6] = system: cystitis murine model; conditions: Wellens et al., 2008; cited from earlier work
# [7] = system: AIEC; conditions: CEABAC 10 Crohn's disease model; Sivignon 2015; cited from earlier work
SMILES,"share of analyzable strains classified on the grey zone (low aggregation) ([1]; 6 concentrations, every hour for 5 hours)",share of analyzable strains that did not aggregate ([1]; all results negative across 6 concentrations and 5 hours),share of analyzable strains that did aggregate ([1]; at least one + or +/− across 6 concentrations and 5 hours),aggregation [2],"level of aggregation ([3]; LF82, 1 nM EB8018, after 5 h of incubation)","level of aggregation ([3]; LF82, 10 nM EB8018, after 5 h of incubation)","level of aggregation ([3]; LF82, 100 nM EB8018, after 5 h of incubation)","level of aggregation ([3]; LF82, 1 μM EB8018, after 5 h of incubation)","starting time of aggregation ([3]; LF82 positive control, incubation at 37° C.)",share of patients with at least one morphotype that aggregated [4],share of patients with no aggregation [4],in vitro AIEC adhesion inhibition [5],concentration required for a significant bacterial load reduction [6],effect with AIEC [7]
"CC(=O)N1CCC2(CC1)c1cc(C#C[C@H]3O[C@H](CO)[C@@H](O)[C@H](O)[C@@H]3O)ccc1-c1ccc(C#C[C@H]3O[C@H](CO)[C@@H](O)[C@H](O)[C@@H]3O)cc12 [EB8018, 1-(2,7-bis(((2R,3S,4R,5S,6R)-3,4,5-trihydroxy-6-(hydroxylmethyl)tetrahydro-2H-pyran-2-yl)ethynyl)spiro[fluorene-9,4′-piperidin]-1′-yl)ethan-1-one]",13%,44%,42%,did not aggregate,strong aggregation,strong aggregation,strong aggregation,moderate aggregation,2 h,65%,15%,–,–,–
CCCCCCCO[C@H]1O[C@H](CO)[C@@H](O)[C@H](O)[C@@H]1O [Heptylmannose],–,–,–,–,–,–,–,–,–,–,–,potent,millimolar concentrations are required,no effect
